The values that follow come from ChEMBL document CHEMBL5212743, “Selectivity Literature for EUbOPEN Chemogenomics Library wave 3” (2023).

Assay [1] addresses Vascular endothelial growth factor receptor 3 (Homo sapiens) (UniProt P35916). Briefly: Selectivity interaction (KinomeScan (DiscoverX)) EUB0000698a FLT4. The conditions noted are these: at 10 µM.
Assay [2] has as its target Tyrosine-protein kinase JAK2 (Homo sapiens, UniProt O60674). Briefly: Selectivity interaction (KinomeScan (DiscoverX)) EUB0000702a JAK2. The settings on record: at 1 µM.
Assay [3] addresses Serine/threonine-protein kinase PLK3 (Homo sapiens, UniProt Q9H4B4). Briefly: Selectivity interaction (KinomeScan (DiscoverX)) EUB0000702a PLK3. The conditions noted are these: at 1 µM.
Assay [4] deals with Serine/threonine-protein kinase PLK1 (Homo sapiens, UniProt P53350). As to the kind of experiment: Selectivity interaction (KinomeScan (DiscoverX)) EUB0000702a PLK1. The conditions noted are these: at 1 µM.
Assay [5] has as its target T1, Dual specificity mitogen-activated protein kinase kinase 5 (Homo sapiens) (UniProt Q13163).
T1 sequence (whole entry): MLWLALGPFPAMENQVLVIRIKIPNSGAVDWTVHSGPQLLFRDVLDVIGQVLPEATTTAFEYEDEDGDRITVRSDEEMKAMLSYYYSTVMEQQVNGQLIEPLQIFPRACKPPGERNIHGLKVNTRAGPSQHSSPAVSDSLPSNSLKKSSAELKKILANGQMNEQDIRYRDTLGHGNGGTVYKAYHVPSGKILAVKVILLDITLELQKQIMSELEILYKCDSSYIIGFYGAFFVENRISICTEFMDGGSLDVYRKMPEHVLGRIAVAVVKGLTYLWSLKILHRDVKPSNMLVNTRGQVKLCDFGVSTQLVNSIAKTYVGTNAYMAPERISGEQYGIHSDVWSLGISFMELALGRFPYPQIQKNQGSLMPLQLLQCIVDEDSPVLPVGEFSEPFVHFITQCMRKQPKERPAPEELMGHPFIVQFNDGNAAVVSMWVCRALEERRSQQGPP
The settings on record: at 1 µM.

Assay [6] deals with Mitogen-activated protein kinase 11 (Homo sapiens) (UniProt Q15759). Briefly: Selectivity interaction (Kinase panel (University of Dundee)) EUB0000169b MAPK11. The settings on record: at 10 µM.
For assay [7], the target named is T1, Dual specificity mitogen-activated protein kinase kinase 5 (Homo sapiens). As to the kind of experiment: Selectivity interaction (KinomeScan (DiscoverX)) EUB0000305b MAP2K5. The settings on record: CellTiter-Glo assay (Promega, proliferation in ACHN cells): IC50 = […] nM, https://www.sgc-ffm.uni-frankfurt.de/#!specificprobeove, at 100 nM. A general note: In ATP-based viability assays light output follows the ATP content of the culture.

Assay [8] has as its target Tyrosine-protein kinase SYK (Homo sapiens, UniProt P43405). As to the kind of experiment: Selectivity interaction (KinomeScan (DiscoverX)) EUB0000305b SYK. The conditions noted are these: CellTiter-Glo assay (Promega, proliferation in ACHN cells): IC50 = […] nM, https://www.sgc-ffm.uni-frankfurt.de/#!specificprobeove, at 100 nM.

Some results are limits rather than exact numbers.

Sequence of Vascular endothelial growth factor receptor 3 (Homo sapiens) (P35916 whole entry): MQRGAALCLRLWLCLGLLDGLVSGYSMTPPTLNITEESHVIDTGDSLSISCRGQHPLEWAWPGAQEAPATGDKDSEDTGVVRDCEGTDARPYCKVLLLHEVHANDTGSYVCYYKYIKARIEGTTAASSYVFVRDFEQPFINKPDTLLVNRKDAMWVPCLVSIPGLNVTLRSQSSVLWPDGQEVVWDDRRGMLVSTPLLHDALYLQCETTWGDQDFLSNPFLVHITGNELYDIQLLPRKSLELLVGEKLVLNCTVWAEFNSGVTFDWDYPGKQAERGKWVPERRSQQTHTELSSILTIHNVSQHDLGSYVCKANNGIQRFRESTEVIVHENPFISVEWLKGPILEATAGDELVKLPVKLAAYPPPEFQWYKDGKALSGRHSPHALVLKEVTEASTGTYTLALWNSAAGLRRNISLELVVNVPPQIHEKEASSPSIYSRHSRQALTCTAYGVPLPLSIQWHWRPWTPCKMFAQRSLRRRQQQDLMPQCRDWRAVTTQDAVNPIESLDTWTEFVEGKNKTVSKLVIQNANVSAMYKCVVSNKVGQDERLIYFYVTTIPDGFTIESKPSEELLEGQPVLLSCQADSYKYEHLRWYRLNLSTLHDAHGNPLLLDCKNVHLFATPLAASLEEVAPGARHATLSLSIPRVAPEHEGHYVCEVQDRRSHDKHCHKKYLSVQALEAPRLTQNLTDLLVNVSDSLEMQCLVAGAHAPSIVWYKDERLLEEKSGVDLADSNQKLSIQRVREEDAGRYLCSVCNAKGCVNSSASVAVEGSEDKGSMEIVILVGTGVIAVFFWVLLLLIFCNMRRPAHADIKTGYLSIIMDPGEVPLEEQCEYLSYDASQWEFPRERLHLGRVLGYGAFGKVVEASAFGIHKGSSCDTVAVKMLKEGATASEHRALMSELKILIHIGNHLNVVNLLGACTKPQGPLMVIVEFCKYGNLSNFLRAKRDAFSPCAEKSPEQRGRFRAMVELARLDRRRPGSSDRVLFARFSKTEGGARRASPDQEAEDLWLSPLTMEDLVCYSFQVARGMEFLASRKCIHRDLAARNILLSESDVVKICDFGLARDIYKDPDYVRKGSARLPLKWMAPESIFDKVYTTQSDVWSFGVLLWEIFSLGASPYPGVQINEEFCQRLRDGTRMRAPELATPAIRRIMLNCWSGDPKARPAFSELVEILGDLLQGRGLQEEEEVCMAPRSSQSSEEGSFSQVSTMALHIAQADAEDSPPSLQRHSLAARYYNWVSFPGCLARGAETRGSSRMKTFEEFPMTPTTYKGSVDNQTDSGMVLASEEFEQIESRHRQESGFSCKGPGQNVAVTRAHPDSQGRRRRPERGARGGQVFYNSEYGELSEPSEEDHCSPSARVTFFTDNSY
Sequence of Mitogen-activated protein kinase 11 (Homo sapiens) (Q15759 whole entry): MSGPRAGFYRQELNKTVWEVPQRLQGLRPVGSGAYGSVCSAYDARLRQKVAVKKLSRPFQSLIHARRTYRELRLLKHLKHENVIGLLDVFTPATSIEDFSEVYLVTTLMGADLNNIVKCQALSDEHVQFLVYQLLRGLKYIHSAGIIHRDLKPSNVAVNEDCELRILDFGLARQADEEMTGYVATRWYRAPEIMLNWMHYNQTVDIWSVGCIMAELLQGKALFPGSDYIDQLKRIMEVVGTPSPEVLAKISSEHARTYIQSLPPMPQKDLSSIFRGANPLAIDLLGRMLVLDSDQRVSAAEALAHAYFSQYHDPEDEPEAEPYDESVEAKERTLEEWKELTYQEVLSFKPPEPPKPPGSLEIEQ
Sequence of Tyrosine-protein kinase JAK2 (O60674 whole entry): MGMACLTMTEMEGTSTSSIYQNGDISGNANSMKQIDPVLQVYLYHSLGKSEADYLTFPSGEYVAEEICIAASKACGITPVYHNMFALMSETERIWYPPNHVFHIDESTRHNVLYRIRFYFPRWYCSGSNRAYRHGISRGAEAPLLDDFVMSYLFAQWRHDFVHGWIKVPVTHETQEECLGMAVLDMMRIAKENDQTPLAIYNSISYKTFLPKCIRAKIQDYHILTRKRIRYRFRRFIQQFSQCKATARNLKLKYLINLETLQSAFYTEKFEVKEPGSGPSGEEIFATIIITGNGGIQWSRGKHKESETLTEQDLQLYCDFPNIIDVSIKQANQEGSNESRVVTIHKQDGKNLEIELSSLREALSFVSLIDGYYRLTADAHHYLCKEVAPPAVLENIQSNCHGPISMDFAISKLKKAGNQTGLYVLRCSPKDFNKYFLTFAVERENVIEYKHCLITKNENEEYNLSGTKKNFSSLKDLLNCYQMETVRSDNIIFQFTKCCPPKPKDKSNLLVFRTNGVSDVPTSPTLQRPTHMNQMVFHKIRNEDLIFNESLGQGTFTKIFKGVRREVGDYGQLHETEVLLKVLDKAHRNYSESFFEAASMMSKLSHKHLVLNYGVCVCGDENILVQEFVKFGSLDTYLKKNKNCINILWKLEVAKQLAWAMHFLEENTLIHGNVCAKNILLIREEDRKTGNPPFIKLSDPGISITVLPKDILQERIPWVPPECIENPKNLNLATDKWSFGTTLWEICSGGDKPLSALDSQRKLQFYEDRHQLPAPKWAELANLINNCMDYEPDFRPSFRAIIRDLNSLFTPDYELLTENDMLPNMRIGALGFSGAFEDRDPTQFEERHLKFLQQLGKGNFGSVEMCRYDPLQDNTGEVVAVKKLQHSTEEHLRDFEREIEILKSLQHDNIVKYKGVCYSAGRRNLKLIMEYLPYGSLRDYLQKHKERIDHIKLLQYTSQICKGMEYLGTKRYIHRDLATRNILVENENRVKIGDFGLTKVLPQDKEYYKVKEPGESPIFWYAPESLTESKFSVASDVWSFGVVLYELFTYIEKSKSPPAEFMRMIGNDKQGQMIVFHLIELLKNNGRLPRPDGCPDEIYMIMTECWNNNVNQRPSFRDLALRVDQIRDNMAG
Sequence of Serine/threonine-protein kinase PLK3 (Q9H4B4 whole entry, looked up): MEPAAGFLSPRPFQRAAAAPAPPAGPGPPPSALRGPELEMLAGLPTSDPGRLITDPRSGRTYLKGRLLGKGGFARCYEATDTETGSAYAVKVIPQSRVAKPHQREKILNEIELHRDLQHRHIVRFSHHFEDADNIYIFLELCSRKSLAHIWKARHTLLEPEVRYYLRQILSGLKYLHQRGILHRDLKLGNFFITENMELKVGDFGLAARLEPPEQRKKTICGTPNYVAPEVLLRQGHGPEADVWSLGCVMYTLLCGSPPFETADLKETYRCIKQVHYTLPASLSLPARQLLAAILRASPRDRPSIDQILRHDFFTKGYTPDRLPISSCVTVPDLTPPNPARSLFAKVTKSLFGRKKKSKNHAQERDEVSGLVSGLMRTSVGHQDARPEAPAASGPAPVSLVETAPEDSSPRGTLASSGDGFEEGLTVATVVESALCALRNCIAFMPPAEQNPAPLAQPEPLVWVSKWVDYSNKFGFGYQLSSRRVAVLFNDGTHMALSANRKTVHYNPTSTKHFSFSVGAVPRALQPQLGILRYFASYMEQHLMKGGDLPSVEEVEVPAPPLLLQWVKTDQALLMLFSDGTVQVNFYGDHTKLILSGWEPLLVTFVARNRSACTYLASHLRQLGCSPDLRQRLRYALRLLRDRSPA
Sequence of Serine/threonine-protein kinase PLK1 (P53350 whole entry): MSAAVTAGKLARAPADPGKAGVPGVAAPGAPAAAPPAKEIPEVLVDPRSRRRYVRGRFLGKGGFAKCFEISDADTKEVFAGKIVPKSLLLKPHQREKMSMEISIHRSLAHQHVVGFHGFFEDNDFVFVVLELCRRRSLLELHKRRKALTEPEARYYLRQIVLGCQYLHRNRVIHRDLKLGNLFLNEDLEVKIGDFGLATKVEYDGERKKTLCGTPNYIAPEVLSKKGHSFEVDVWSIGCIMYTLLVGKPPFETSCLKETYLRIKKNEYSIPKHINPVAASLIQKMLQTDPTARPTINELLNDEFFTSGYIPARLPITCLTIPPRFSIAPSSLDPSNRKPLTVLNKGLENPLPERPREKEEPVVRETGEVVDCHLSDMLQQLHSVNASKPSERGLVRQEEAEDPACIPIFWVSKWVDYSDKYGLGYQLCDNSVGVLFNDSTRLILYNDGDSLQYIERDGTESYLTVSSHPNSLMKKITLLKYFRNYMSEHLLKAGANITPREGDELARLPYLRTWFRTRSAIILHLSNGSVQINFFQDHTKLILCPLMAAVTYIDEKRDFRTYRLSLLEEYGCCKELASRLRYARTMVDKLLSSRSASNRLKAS

Compound `COc1cc2ncn(-c3cc(OCc4ccccc4C(F)(F)F)c(C(N)=O)s3)c2cc1OC` [GW843682X] came in with a % of control in assay [1] of 1.4%. Consider `CN(c1ccnc(CNc2nc(Nc3ccc4c(c3)CC(=O)N4)ncc2C(F)(F)F)n1)S(C)(=O)=O` [PF-00911705], for which the % of control in assay [2] was determined as 3.8%; in assay [3], 1.7%; in assay [4] it was 7.6%. In assay [5], `CCOc1cn(-c2ccc(F)cc2C)nc1C(=O)Nc1ccc(Oc2ccnc3cc(OC)c(OC)cc23)c(F)c1` registered a % of control of less than 10%. The compound `CC[C@@H]1C(=O)N(C)c2cnc(Nc3ccc(C(=O)NC4CCN(C)CC4)cc3OC)nc2N1C1CCCC1` came in with a % of control in assay [6] of 97%. As for `C[C@H](c1ccnc(Nc2nc3ccc(-c4cc(N(C)C)ncn4)cc3[nH]2)c1)N1CCN(C(=O)CC(F)(F)F)CC1` [BAY-985], the % of control in assay [7] turned out to be 8.5%; in assay [8] it was 31%.
